Assay results reported in patent US20250130239A1, “PROTEIN DEGRADER” (University of Dundee, priority 2021, published 2025).

Experiments:
VHL (VCB protein) = target: T1, VHL (VCB protein) (Homo sapiens, UniProt P40337); assay: Fluorescence polarization competitive binding assay, binary binding; settings: compound alone; displacement of HIF-1a peptide probe; read-out: binary affinity to VHL Kd
T1 construct: N-terminally Hiss-tagged VHL (54-213); His6 (N, cleaved yes); made in house; host or cells: E. coli
Protocol: Protein Expression and Purification. […] The complex was further purified by anion exchange followed by gel filtration chromatography.
Fluorescence Polarization Binding Assay. […] All components were dissolved from stock solutions using 100 mM Bis-Tris propane, 100 mM NaCl, 1 mM DTT, pH 7.0, to yield a final assay volume of 15 μL. DMSO was added as appropriate to ensure a final concentration of 2% v/v. […] Percentage displacement values were obtained by normalization of controls were plotted against Log[Compound]. IC50 values were determined for each titration using nonlinear regression analysis with Prism (v. 9.1.0, GraphPad). […] Cooperativity values (a) for each PROTAC were calculated using the ratio: α=binary Kd (−bromodomain)/ternary Kd (+bromodomain).

[1] = target: T2, MCM2 (P49736), BromoTag N-term (Homo sapiens, UniProt O60885+P40337, L387A); assay: Degradation of BromoTag'ed MCM2 by AGB1; type: cell-based
T2 construct: comprising residues 368-440 of human Brd4; MCM2 (endogenous protein, fusion partner in the same polypeptide); expressed in transfected cells
Source text: (§1) Degradation of a variety of target proteins. […] We performed CRISPR knock-in of the BromoTag, as described, into the endogenous loci of five additional proteins. […] The target proteins of Table 6 are all different, are all known to have different cellular roles and function, intracellular expression, and distinctive turnover rates within cells.

[2] = target: T3, PPM1H (Q9ULR3), BromoTag C-term (Homo sapiens, UniProt O60885+P40337, L387A); assay: Degradation of BromoTag'ed PPM1H by AGB1; type: cell-based
T3 construct: comprising residues 368-440 of human Brd4; PPM1H (endogenous protein, fusion partner in the same polypeptide); expressed in transfected cells
Source text: as §1

[3] = tested on: BromoTag-protein conjugates; assay: Degradation of a variety of BromoTag'ed target proteins (summary); type: cell-based; settings: treatment window of 100 nM-1 nM
Source text: as §1

[4] = tested on: BRD3, BRD4 or any other endogenous protein; assay: TMT labeling mass spectrometry proteomics, off-targets; type: cell-based, human; settings: 1 μM, 2 h; >6,621 proteins quantified
Protocol: Sample processing, TMT labelling and fractionation. CRISPR modified BromoTag-Brd2 HEK293 cells were seeded 5×10^6 cells on a […] 24 h before treatment. Cells were treated with either DMSO, 1 μM AGB1 or 1 μM cis-AGB1. 2 h post-treatment, the cells were washed twice with PBS. Cells were lysed in 150 μL of 100 mM TEAB, 5% (w/v) SDS. The lysate was sonicated for 10 s and then centrifuged at 15,000 g for 5 min with the supernatant collected post-centrifugation. Samples were then quantified using a micro-BCA protein assay kit (Thermo Fisher Scientific); 300 μg of each sample were then reduced, alkylated and then digested using Strap mini protocol (Protifi) protocol as described by the manufacturer (protifi) with some modification. Samples were double digested with trypsin (1:40) first overnight then for another 6 hrs with the same ratio (1:40) in 50 mM TEAB buffer. Peptides were quantified using a quantitative fluorometric peptide assay (Thermo Fisher Scientific). The samples (90 μg each) were labelled with a TMT 10-plex Isobaric Label Reagent set (Thermo Fisher Scientific) as per the manufacturer's instructions. After labelling, samples were checked for labelling efficiency, then mixed, desalted, and dried in a speed-vac at 30° C. Samples were re-dissolved in 200 μl ammonium formate (10 mM, pH 9.5) and peptides were fractionated using High pH RP Chromatography. […]

CC[C@@H](C(=O)OCCOCCOCCOCC(=O)N[C@H](C(=O)N1C[C@H](O)C[C@H]1C(=O)NCc1ccc(-c2scnc2C)cc1)C(C)(C)C)[C@@H]1N=C(c2ccc(Cl)cc2)c2c(sc(C)c2C)-n2c(C)nnc21 (single isomer, unassigned) [AGB1 (46)]
Kd (VHL (VCB protein)): 125 nM
Dmax [1]: > 95%
pDC50 ([1]; BromoTag'ed MCM2, N-term tag): 8.0
Dmax [2]: > 95%
pDC50 ([2]; BromoTag'ed PPM1H, C-term tag): >7.0
loss of total target protein [3]: greater than 95%
depletion of BRD3, BRD4 or any other endogenous protein (proteomics) [4]: no detectable off-target effects
